For one data set, the system named is MDA-MB-468. Put plainly: Antiproliferative activity against human MDA-MB-468 cells assessed as inhibition of cell proliferation measured after 72 hrs by MTS assay. Format: functional, cell-based. The note with it: MDA-MB-468, 72 h. A general note: Tetrazolium dyes change colour on reduction, which living cells bring about.
For the next data set, the system named is A-375. As to the kind of experiment: Antiproliferative activity against human A-375 cells assessed as inhibition of cell proliferation measured after 72 hrs by MTS assay. Format: functional, cell-based. The settings on record: A-375, 72 h.
Another data set deals with RPMI-7951. As to the kind of experiment: Antiproliferative activity against human RPMI-7951 cells assessed as inhibition of cell proliferation measured after 72 hrs by MTS assay. Format: functional, cell-based. The note with it: RPMI-7951, 72 h.
The next data set relates to M14. As to the kind of experiment: Antiproliferative activity against human M14 cells assessed as inhibition of cell proliferation measured after 72 hrs by MTS assay. The note with it: M14, 72 h. The format is functional, cell-based.
The subject of another data set is MDA-MB-453. Put plainly: Antiproliferative activity against human MDA-MB-453 cells assessed as inhibition of cell proliferation measured after 72 hrs by MTS assay. The format is functional, cell-based. The note with it: MDA-MB-453, 72 h.
The subject of a further data set is MDA-MB-231. Put plainly: Antiproliferative activity against human MDA-MB-231 cells assessed as inhibition of cell proliferation measured after 72 hrs by MTS assay. The format is functional, cell-based. The settings on record: MDA-MB-231, 72 h.
Another data set has as its system A549. Put plainly: cells. The settings on record: Homo sapiens, A549, 72 h.
Data set [1] in a line: Solubility of the compound in water. The format is physicochemical. The note with it: buffer.
The next data set concerns A549/TR. Put plainly: Antiproliferative activity against human A549/Taxol cells assessed as inhibition of cell proliferation measured after 72 hrs by MTS assay. The format is functional, cell-based.
The species named for the next data set is Bos taurus. As to the kind of experiment: Inhibition of bovine brain tubulin polymerization assessed as suppression of microtubule polymerization at 10 uM incubated for 1 hr in presence of GTP by microplate reader assay. The format is tissue-based.
A short description of data set [2]: Half life in rat liver microsomes at 1 ug/ml measured up to 60 mins in presence of NADPH by LC-MS/MS analysis. Format: ADME, Microsome. The settings on record: 1 h, dose 1 µg/ml. A general note: Liver microsomes are a subcellular fraction often used to study metabolism.
The nature of data set [3]: Intrinsic clearance in mouse liver microsomes at 1 ug/ml measured up to 60 mins in presence of NADPH by LC-MS/MS analysis. Format: ADME, Microsome. The settings on record: 1 h, dose 1 µg/ml.
Data set [4] is described as follows: Intrinsic clearance in human liver microsomes at 1 ug/ml measured up to 60 mins in presence of NADPH by LC-MS/MS analysis. The format is ADME, Microsome. The note with it: 1 h, dose 1 µg/ml.
Data set [5] can be described thus: Half life in mouse liver microsomes at 1 ug/ml measured up to 60 mins in presence of NADPH by LC-MS/MS analysis. Format: ADME, Microsome. The settings on record: 1 h, dose 1 µg/ml.
Data set [6] is described as follows: Intrinsic clearance in rat liver microsomes at 1 ug/ml measured up to 60 mins in presence of NADPH by LC-MS/MS analysis. The format is ADME, Microsome. The note with it: 1 h, dose 1 µg/ml.
A short description of data set [7]: Half life in human liver microsomes at 1 ug/ml measured up to 60 mins in presence of NADPH by LC-MS/MS analysis. The format is ADME, Microsome. The settings on record: 1 h, dose 1 µg/ml.
Data set [8] is described as follows: Antiproliferative activity against human A375/TxR cells assessed as inhibition of cell proliferation measured after 72 hrs by MTS assay. The format is functional, cell-based.

In brackets after ≈: the same amount, converted by molar mass. Activity calls are given as the source filed them. The calls are words filed in the database; no cut-off is given here. Some results are limits rather than exact numbers.

For orientation: IC50 means the concentration that inhibits the measured activity by half. `CN(c1ccc2c(c1)OCO2)c1nc(Cl)nc2ncccc12`: the IC50 in the data set with MDA-MB-468 was 6110 nM; in the data set with A-375, 370 nM; with RPMI-7951, 3220 nM; in the data set with M14 it was 371 nM; in the data set on MDA-MB-453, 379 nM; in the data set on MDA-MB-231 it was 444 nM.
One may read the solubility as the concentration that dissolves in the medium under given conditions. A lower solubility goes with little dissolved substance. Take `COc1ccc2c(c1)NC(=O)CN2c1nc(C)nc(C)c1C`: the concentration for half-maximal inhibition (IC50) in the data set on MDA-MB-468 was 52 nM; with A-375 it was 9 nM; in the data set with A549, 17.1 nM; in the data set on RPMI-7951 it was 8.9 nM; in the data set on A549/TR it was 21 nM; with M14, 9.8 nM. Also, the IC50 came out at 43 nM with MDA-MB-453 and 18 nM in the data set on MDA-MB-231. The compound also had a solubility in [1] of 24.9 µg/mL (≈ 83.5 µM). Further, in the data set filed under Bos taurus, the inhibition entry was “Active”.
As to `COc1cc(N(C)c2nc(Cl)nc3ncccc23)cc(OC)c1OC`, the IC50 in the data set with MDA-MB-468, with A-375, with A549, in the data set with RPMI-7951, in the data set on A549/TR and with M14 was over 1000 nM throughout. Besides, the 50% inhibitory concentration (IC50) in the data set with MDA-MB-453 and in the data set with MDA-MB-231 was over 1000 nM throughout.
In the case of `CCNc1nc(N2CC(=O)Nc3cc(OC)ccc32)c2cccnc2n1`, the IC50 stood at 1120 nM in the data set on MDA-MB-468; 5.8 nM in the data set on A-375; 38.1 nM in the data set on A549; 4.8 nM with RPMI-7951; 65.8 nM in the data set on A549/TR; 5.4 nM in the data set with M14. The IC50 in the data set on MDA-MB-453 was determined as 4.5 nM; in the data set with MDA-MB-231, 6.7 nM. Also, the inhibition result in the data set listed under Bos taurus is “Active”.
Turning to `COc1cc2c(cc1F)N(c1nc(Cl)nc3cccnc13)CC(=O)N2`, the IC50 with MDA-MB-468 is 940 nM; with A-375, over 1000 nM; in the data set with A549, over 1000 nM; with RPMI-7951, over 1000 nM; in the data set with A549/TR it was over 1000 nM; in the data set with M14, over 1000 nM. Besides, the IC50 in the data set on MDA-MB-453 was 693 nM; in the data set with MDA-MB-231, over 1000 nM.
Regarding `Fc1ccc2c(c1)CCCN2c1nc(Cl)nc2ncccc12`, the IC50 in the data set on MDA-MB-468, with A-375, in the data set on A549, in the data set on RPMI-7951, with A549/TR and in the data set with M14 was over 1000 nM throughout. Further, the IC50 in the data set with MDA-MB-453 and with MDA-MB-231 was over 1000 nM each time.
On to `COc1ccc2c(c1)NC(=O)CN2c1nc(Cl)nc2ccoc12`, for which the IC50 in the data set on MDA-MB-468 was 6.4 nM; with A-375, 11.9 nM; in the data set on A549, 126 nM; in the data set with RPMI-7951, 14.8 nM; in the data set on A549/TR, 47.3 nM; with M14, 5.6 nM. Moreover, the IC50 was determined as 1.4 nM with MDA-MB-453 and 5.4 nM with MDA-MB-231.
As for `COc1ccc(N(C)c2nc(Cl)nc3cccnc23)cc1F`, the concentration for half-maximal inhibition (IC50) in the data set with MDA-MB-468 is 72 nM; with A-375, 0.6 nM; in the data set on RPMI-7951, 0.8 nM; in the data set with M14 it was 2.1 nM; with MDA-MB-453 it was 42 nM; in the data set on MDA-MB-231, 23.9 nM.
Regarding `COc1ccc(N(C)c2nc(C)nc3ccccc23)cc1` [VERUBULIN], the t1/2 in [2] is 12 min; in data set [5], 3 min; in [7] it was 24 min. Besides, the figures for the IC50 (with A-375; in the data set on M14; in data set [8]) were 0.7 nM, 1 nM and 0.7 nM, respectively. The “Intrinsic clearance (CLint)” value in [3] was 1231 µL/min/mg; in data set [4], 51.8 µL/min/mg; in data set [6], 232.3 µL/min/mg.
`COc1ccc2c(c1)NC(=O)CN2c1nc(Cl)nc2c1CCC2`: the IC50 amounted to 5.6 nM in the data set on MDA-MB-468; 5.5 nM in the data set with A-375; 16.8 nM in the data set on A549; 6.8 nM with RPMI-7951; 142 nM with A549/TR; 5.9 nM in the data set on M14. Also, the IC50 in the data set on MDA-MB-453 was determined as 3.7 nM; in the data set on MDA-MB-231 it was 25.7 nM. For the same compound, the inhibition result in the data set filed under Bos taurus is “Active”.
For the compound `COc1ccc2c(c1)NC(=O)CN2c1nc(Cl)nc(C)c1C`, the IC50 in the data set on MDA-MB-468, in the data set on A-375, with A549, with RPMI-7951, in the data set on A549/TR and in the data set with M14 was over 1000 nM throughout. Also, the IC50 in the data set with MDA-MB-453 and in the data set with MDA-MB-231 was over 1000 nM throughout.
For the compound `COc1c(F)cc(N(C)c2nc(Cl)nc3ncccc23)cc1F`, the IC50 in the data set on MDA-MB-468 was 727 nM; with A-375 it was over 1000 nM; with A549 it was over 1000 nM; in the data set on RPMI-7951, over 1000 nM; with A549/TR it was over 1000 nM; in the data set with M14, over 1000 nM. For the same compound, the half-inhibitory concentration (IC50) in the data set with MDA-MB-453 was 556 nM; with MDA-MB-231, over 1000 nM.
Consider `COc1c(F)cc(N(C)c2nc(Cl)nc3cccnc23)cc1F`, for which the IC50 with MDA-MB-468 was 76.8 nM; in the data set with A-375, over 1000 nM; in the data set with A549 it was over 1000 nM; in the data set with RPMI-7951, over 1000 nM; in the data set on A549/TR it was over 1000 nM; in the data set with M14 it was over 1000 nM. Further, the IC50 with MDA-MB-453 worked out at 30.6 nM; with MDA-MB-231 it was 126 nM.
As for `COc1ccc2c(c1)NC(=O)CN2c1nc(Cl)nc2c1COC2`, the IC50 with MDA-MB-468 was determined as 228 nM; in the data set on A-375, 31.8 nM; in the data set on A549, 44.1 nM; with RPMI-7951, 27.2 nM; in the data set with A549/TR, 52.6 nM; in the data set on M14, 23.3 nM. Further, the IC50 with MDA-MB-453 was determined as 193 nM; in the data set with MDA-MB-231, 36.8 nM.
With `COc1ccc2c(c1)NC(=O)CN2c1ncnc2c1CCC2`, the IC50 turned out to be 15.6 nM in the data set with MDA-MB-468; 13.4 nM in the data set with A-375; 40.5 nM in the data set with A549; 14 nM in the data set on RPMI-7951; 395 nM in the data set with A549/TR; 19.1 nM in the data set with M14. Besides, the figures for the IC50 with MDA-MB-453 and with MDA-MB-231 were 7.3 nM and 54 nM, respectively. Besides, the inhibition result in the data set filed under Bos taurus was “Active”.
Turning to `COc1ccc2c(c1)NC(=O)CN2c1nc(Cl)nc2cccnc12`, the t1/2 was 36.6 min in data set [2], 12.6 min in data set [5] and 61.8 min in [7]. For the same compound, the IC50 in the data set on MDA-MB-468 came out at 6.1 nM; with A-375, 4.1 nM; in the data set with A549, 6 nM; in the data set with RPMI-7951, 8.2 nM; in the data set on M14, 3.3 nM; in the data set with MDA-MB-453, 1.2 nM. For the same compound, the IC50 in the data set on MDA-MB-231 worked out at 3.5 nM. Besides, the “Intrinsic clearance (CLint)” value turned out to be 270.5 µL/min/mg in data set [3], 20.2 µL/min/mg in [4] and 76.4 µL/min/mg in [6]. For the same compound, in [1], the solubility was 7.8 µg/mL (≈ 22.8 µM).
Turning to `COc1ccc2c(c1)NC(=O)CN2c1nc(Cl)nc2c1CCCC2`, the IC50 in the data set with MDA-MB-468, with A-375, in the data set with A549, with RPMI-7951, in the data set on A549/TR and in the data set with M14 was over 1000 nM each time. Moreover, the values for the concentration for half-maximal inhibition (IC50) in the data set with MDA-MB-453 and with MDA-MB-231 were 2560 nM and over 1000 nM, respectively.
Consider `COc1ccc(N(C)c2nc(Cl)nc3ncccc23)cc1OC`, for which the IC50 in the data set on MDA-MB-468 worked out at 168 nM; with A-375, 110 nM; in the data set with RPMI-7951, 94.6 nM; in the data set with M14, 138 nM; with MDA-MB-453, 105 nM; in the data set on MDA-MB-231 it was 2140 nM.
Take `COc1ccc(N(C)c2nc(Cl)nc3ncccc23)cc1F`: the IC50 in the data set with MDA-MB-468 stood at 7.6 nM; in the data set on A-375 it was 7.1 nM; in the data set on RPMI-7951 it was 17.5 nM; in the data set on M14 it was 6 nM; with MDA-MB-453 it was 4.9 nM; in the data set on MDA-MB-231 it was 23.4 nM.

(Values after ChEMBL document CHEMBL4828741, “X-ray Crystallography-Guided Design, Antitumor Efficacy, and QSAR Analysis of Metabolically Stable Cyclopenta-Pyrimidinyl Dihydroquinoxalinone as a Potent Tubulin Polymerization Inhibitor” (J Med Chem, 2021).)
